Reference: patent publication US12698474B2, “B-cell cultivation method” (priority 2017, dated 2026)

Tested on: B-cells obtained from a rabbit immunized with human serum albumin (HSA)
Assay: Co-cultivation of single deposited B-cells with EL-4 B5 feeder cells, detection of antigen-specific (anti-HSA) IgG by ELISA;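 on HSA+ wells [% IgG+]: relative ranking scale running from o (lowest) to +++++ (highest)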;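 on HSA+ wells [% total]: relative ranking scale running from o (lowest) to +++++ (highest)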
Assay type: cell-based
Method: In more detail, NZW rabbits, 12-16 weeks old, were immunized with 400 μg recombinant human serum albumin protein (HSA; CAS RN 70024-90-7; Sigma), emulsified with complete Freund's adjuvant, at day 0 by intradermal application, followed by 200 μg HSA emulsified with complete or incomplete Freund's adjuvant at weeks 1, 2, 6, 10 and 23, by alternating intramuscular and subcutaneous injections.
Generally, antibodies produced by single deposited and co-cultivated B-cells or from B-cells obtained from an immunized experimental animal can be characterized with respect to specific antigen binding. The ELISA was performed at room temperature and the ELISA-solution was incubated between the individual steps on a shaker at 20×g. In the first step the antigen was bound to the wells of a 96-well multi well plate. If the antigen was a protein it had been diluted in coating buffer and applied directly to the plate. Peptide antigens were bound via the specific binding pair biotin/streptavidin. The wells of the multi well plate can be already coated with soluble CroteinC (CrC) by the manufacturer. If not, the wells were incubated after the immobilization of the antigen with 200 μl blocking buffer. After the incubation with 100 μl antigen solution per well (pre-coated multi well plate) or 200 μl blocking buffer, respectively, non-bound antigen or blocking buffer was removed by washing with wash buffer. The diluted B-cell supernatants were added in a volume of 100 μl per well and incubated. After the incubation the wells were washed. Afterwards the detection antibody was added in a volume of 100 μl per well. The antibody can be either conjugated to horseradish peroxidase or labeled with biotin. The detection antibody was determined with a streptavidin-horseradish peroxidase conjugate. After the incubation the multi well plate was washed and afterwards 50 μl of a substrate solution containing 3,3′,5,5′ tetramethyl benzidine (TMB) were added per well and incubated for a period as given in Table X. The enzymatic reaction was stopped by the addition of 50 μl sulfuric acid and the optical density was determined at 450 nm and 680 nm with a photometer (Rainbow Thermo ELISA Reader) and the Xread plus-software.
Specifically, the assay was performed at room temperature (RT) on 384-well Maxisorp microtiter plates (Thermo Scientific) with PBS (phosphate buffered saline) buffer supplemented with 0.5% Gelatine and 0.025% Tween V-20. The plates were coated with 0.5 μg/ml of human serum albumin (HSA, Sigma-Aldrich) for at least 2 hours to overnight. After washing (3×) with PBST (PBS with 0.1% Tween®-20) buffer the wells were blocked with PBS with 0.5% Gelatine and 0.1% Tween®-20. Again, the plates were washed 3× and afterwards dilutions of B-cell supernatants were added. After an incubation of 60 min and 3 washing steps with PBST a 1:4000 dilution of a HRP-conjugated anti-rabbit IgG antibody (Amersham) was transferred to the wells and incubated for 60 min. Finally, the plates were repeatedly washed (6×) with PBST and developed with BM Blue® HRP substrate solution for 30 min. Absorbance was measured at 392-405 nm.
Single cell sorted B-cells were cultured in 96-well plates with 200 μl/well EL-4 B5 medium with Pansorbin Cells (SAC) (Calbiochem (Merck), Darmstadt, Deutschland), EL-4 B5 cells (5×10^4/well) and rabbit thymocyte supernatant (TSN) or cytokine mix (CM) with PMA, respectively, for 7 days at 37° C. in an atmosphere of 5% CO2 in the incubator. B-cell culture supernatants were removed for screening and the cells harvested immediately for variable region gene cloning or frozen at −80° C. in 100 μl RLT buffer (Qiagen, Hilden, Germany).

CCCCCCCCCCCCCC(=O)O[C@@H]1[C@@H](C)[C@@]2(O)[C@@H](C=C(CO)C[C@]3(O)C(=O)C(C)=C[C@@H]23)[C@@H]2C(C)(C)[C@]12OC(C)=O [PMA, (1aR,1bS,4aR,7aS,7bS,8R,9R,9aS)-9a-(acetyloxy)-4a,7b-dihydroxy-3-(hydroxymethyl)-1,1,6,8-tetramethyl-5-oxo-1a,1b,4,4a,5,7a,7b,8,9,9a-decahydro-H-cyclopropa[3,4]benzo[1,2-e]azulen-9-yl myristate]
HSA+ wells [% IgG+] (PMA 0.002 ng/ml, 0.1×CM): ++
HSA+ wells [% total] (PMA 0.002 ng/ml, 0.1×CM): +
HSA+ wells [% IgG+] (PMA 0.011 ng/ml, 0.032×CM): +++++
HSA+ wells [% total] (PMA 0.011 ng/ml, 0.032×CM): +++
HSA+ wells [% IgG+] (PMA 0.011 ng/ml, 0.1×CM): +++++
HSA+ wells [% total] (PMA 0.011 ng/ml, 0.1×CM): +++
HSA+ wells [% IgG+] (PMA 0.054 ng/ml, 0.1×CM): +++
HSA+ wells [% total] (PMA 0.054 ng/ml, 0.1×CM): +++
Number of anti-HSA antibody positive wells [% of IgG positive wells] (PMA 0.095 ng/ml, CM 1x): 62.5 % of IgG positive wells
Number of anti-HSA antibody positive wells [% of total] (PMA 0.095 ng/ml, CM 1x): 23.8 % of total
HSA+ wells [% IgG+] (PMA 0.127 ng/ml, 0.032×CM): ++
HSA+ wells [% IgG+] (PMA 0.127 ng/ml, 0.1×CM): ++
HSA+ wells [% total] (PMA 0.127 ng/ml, 0.1×CM): +
HSA+ wells [% IgG+] (PMA 0.225 ng/ml, 0.1×CM): ++++
HSA+ wells [% total] (PMA 0.225 ng/ml, 0.1×CM): +++++
HSA+ wells [% IgG+] (PMA 0.3 ng/ml, 0.032×CM): +++
HSA+ wells [% total] (PMA 0.3 ng/ml, 0.032×CM): ++++
Number of anti-HSA antibody positive wells [% of IgG positive wells] (PMA 0.3 ng/ml, CM 0.01x): 41.4 % of IgG positive wells
Number of anti-HSA antibody positive wells [% of total] (PMA 0.3 ng/ml, CM 0.01x): 28.6 % of total
Number of anti-HSA antibody positive wells [% of IgG positive wells] (PMA 0.3 ng/ml, CM 0.032x): 39.0 % of IgG positive wells
Number of anti-HSA antibody positive wells [% of total] (PMA 0.3 ng/ml, CM 0.032x): 27.4 % of total
Number of anti-HSA antibody positive wells [% of IgG positive wells] (PMA 0.3 ng/ml, CM 0.1x): 42.1 % of IgG positive wells
Number of anti-HSA antibody positive wells [% of total] (PMA 0.3 ng/ml, CM 0.1x): 28.6 % of total
Number of anti-HSA antibody positive wells [% of IgG positive wells] (PMA 0.3 ng/ml, CM 0.32x): 39.6 % of IgG positive wells
Number of anti-HSA antibody positive wells [% of total] (PMA 0.3 ng/ml, CM 0.32x): 22.6 % of total
Number of anti-HSA antibody positive wells [% of IgG positive wells] (PMA 0.3 ng/ml, CM 1x): 20.0 % of IgG positive wells
Number of anti-HSA antibody positive wells [% of total] (PMA 0.3 ng/ml, CM 1x): 3.6 % of total
HSA+ wells [% IgG+] (PMA 0.534 ng/ml, 0.032×CM): +++
HSA+ wells [% total] (PMA 0.534 ng/ml, 0.032×CM): ++
HSA+ wells [% IgG+] (PMA 0.534 ng/ml, 0.1×CM): +++
HSA+ wells [% total] (PMA 0.534 ng/ml, 0.1×CM): +++
HSA+ wells [% IgG+] (PMA 0.535 ng/ml, without CM): +++++
HSA+ wells [% total] (PMA 0.535 ng/ml, without CM): +
HSA+ wells [% total] (PMA 0.712 ng/ml, 0.032×CM): +
HSA+ wells [% IgG+] (PMA 0.712 ng/ml, 0.1×CM): ++++
HSA+ wells [% total] (PMA 0.712 ng/ml, 0.1×CM): +++
HSA+ wells [% IgG+] (PMA 0.949 ng/ml, 0.032×CM): +++
HSA+ wells [% total] (PMA 0.949 ng/ml, 0.032×CM): +++++
HSA+ wells [% IgG+] (PMA 0.949 ng/ml, 0.1×CM): +
Number of anti-HSA antibody positive wells [% of IgG positive wells] (PMA 0.95 ng/ml, CM 0x): 66.7 % of IgG positive wells
Number of anti-HSA antibody positive wells [% of total] (PMA 0.95 ng/ml, CM 0x): 19.0 % of total
Number of anti-HSA antibody positive wells [% of IgG positive wells] (PMA 0.95 ng/ml, CM 0.01x): 39.7 % of IgG positive wells
Number of anti-HSA antibody positive wells [% of total] (PMA 0.95 ng/ml, CM 0.01x): 27.4 % of total
Number of anti-HSA antibody positive wells [% of IgG positive wells] (PMA 0.95 ng/ml, CM 0.032x): 45.6 % of IgG positive wells
Number of anti-HSA antibody positive wells [% of total] (PMA 0.95 ng/ml, CM 0.032x): 31.0 % of total
Number of anti-HSA antibody positive wells [% of IgG positive wells] (PMA 0.95 ng/ml, CM 0.1x): 54.8 % of IgG positive wells
Number of anti-HSA antibody positive wells [% of total] (PMA 0.95 ng/ml, CM 0.1x): 27.4 % of total
Number of anti-HSA antibody positive wells [% of IgG positive wells] (PMA 0.95 ng/ml, CM 0.32x): 30.0 % of IgG positive wells
Number of anti-HSA antibody positive wells [% of total] (PMA 0.95 ng/ml, CM 0.32x): 7.1 % of total
Number of anti-HSA antibody positive wells [% of IgG positive wells] (PMA 0.95 ng/ml, CM 1x): 42.9 % of IgG positive wells
Number of anti-HSA antibody positive wells [% of total] (PMA 0.95 ng/ml, CM 1x): 3.6 % of total
HSA+ wells [% IgG+] (PMA 0.95 ng/ml, without CM): +++
HSA+ wells [% IgG+] (PMA 1.266 ng/ml, 0.032×CM): ++++
HSA+ wells [% total] (PMA 1.266 ng/ml, 0.032×CM): +++++
HSA+ wells [% IgG+] (PMA 1.688 ng/ml, 0.032×CM): +
HSA+ wells [% total] (PMA 1.688 ng/ml, 0.032×CM): +++++
HSA+ wells [% IgG+] (PMA 1.688 ng/ml, without CM): +++++
HSA+ wells [% total] (PMA 1.688 ng/ml, without CM): +++++
HSA+ wells [% total] (PMA 2.25 ng/ml, 0.032×CM): ++
HSA+ wells [% IgG+] (PMA 2.251 ng/ml, without CM): +++
HSA+ wells [% total] (PMA 2.251 ng/ml, without CM): +++++
Number of anti-HSA antibody positive wells [% of IgG positive wells] (PMA 3 ng/ml, CM 0.01x): 48.3 % of IgG positive wells
Number of anti-HSA antibody positive wells [% of total] (PMA 3 ng/ml, CM 0.01x): 33.3 % of total
Number of anti-HSA antibody positive wells [% of IgG positive wells] (PMA 3 ng/ml, CM 0.032x): 47.5 % of IgG positive wells
Number of anti-HSA antibody positive wells [% of total] (PMA 3 ng/ml, CM 0.032x): 34.5 % of total
Number of anti-HSA antibody positive wells [% of IgG positive wells] (PMA 3 ng/ml, CM 0.1x): 20.0 % of IgG positive wells
Number of anti-HSA antibody positive wells [% of total] (PMA 3 ng/ml, CM 0.1x): 7.1 % of total
Number of anti-HSA antibody positive wells [% of IgG positive wells] (PMA 3 ng/ml, CM 0.32x): 27.3 % of IgG positive wells
Number of anti-HSA antibody positive wells [% of total] (PMA 3 ng/ml, CM 0.32x): 3.6 % of total
Number of anti-HSA antibody positive wells [% of IgG positive wells] (PMA 3 ng/ml, CM 1x): 45.5 % of IgG positive wells
Number of anti-HSA antibody positive wells [% of total] (PMA 3 ng/ml, CM 1x): 6.0 % of total
HSA+ wells [% total] (PMA 3.999 ng/ml, without CM): +
HSA+ wells [% IgG+] (PMA 5.331 ng/ml, without CM): ++
HSA+ wells [% total] (PMA 5.331 ng/ml, without CM): +++
HSA+ wells [% IgG+] (PMA 7.106 ng/ml, without CM): +
HSA+ wells [% total] (PMA 7.106 ng/ml, without CM): ++++
